According to patent US20260250318A1, “COMPOSITIONS AND METHODS FOR CROSSING THE BLOOD BRAIN BARRIER” (VOYAGER THERAPEUTICS, INC., priority 2022, published 2026):

Columns and labels:
[1] = system: brains, heart, liver, muscle, and DRG of the NHPs; assay: Maturation of TTM-001 and TTM-002 capsids, NGS enrichment in NHP tissues; assay type: in vivo; settings: relative to AAV9 control
In short: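 Variants carry mutations within and flanking the loop IV peptide insert: positions 450–466 were triplet-randomized, while positions 449–466 received low-frequency point mutations. The combined pool went into two NHPs, and each peptide was scored by NGS enrichment ratio against AAV9.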

[2] = system: brain; assay: Matured TTM-001 and TTM-002 variants, NGS enrichment in mouse brain; assay type: in vivo, mice; settings: relative to AAV9 control
[3] = NGS fold-enrichment of RNA, NHP brain
[4] = NGS fold-enrichment, DRG of NHPs
[5] = NGS fold-enrichment, NHP liver DNA
[6] = NGS fold-enrichment, NHP liver RNA
[7] = NGS fold-enrichment, NHP muscle
[8] = NGS fold-enrichment, RNA, brain of NHPs
[9] = NGS fold-enrichment, heart of NHPs
[10] = NGS fold-enrichment, liver DNA of NHPs
[11] = NGS fold-enrichment, liver RNA of NHPs
[12] = NGS fold-enrichment, muscle of NHPs
[13] = NGS fold-enrichment, brain of mice
[14] = NGS fold-enrichment, mouse brain
[15] = NGS fold-enrichment of matured AAV capsid variants, NHP brain, RNA

Sequence	Fold Enrichment relative to AAV9, Brain (NHP) [1, 3]	Fold Enrichment relative to AAV9, DRG (NHP) [1, 4]	Fold Enrichment relative to AAV9, DRG (NHP) ([1]; NGS fold-enrichment, NHP DRG)	Fold Enrichment relative to AAV9, Heart (NHP) ([1]; NGS fold-enrichment, NHP heart)	Fold Enrichment relative to AAV9, Liver DNA (NHP) [1, 5]	Fold Enrichment relative to AAV9, Liver RNA (NHP) [1, 6]	Fold Enrichment relative to AAV9, Muscle (NHP) [1, 7]	Fold Enrichment relative to AAV9, Brain (NHP) [1, 8]	Fold Enrichment relative to AAV9, Heart (NHP) [1, 9]	Fold Enrichment relative to AAV9, Liver DNA (NHP) [1, 10]	Fold Enrichment relative to AAV9, Liver RNA (NHP) [1, 11]	Fold Enrichment relative to AAV9, Muscle (NHP) [1, 12]	Fold Enrichment relative to AAV9, Brain (Mouse) [2, 13]	Fold Enrichment relative to AAV9, Brain (Mouse) [2, 14]	other results
KTINGSGSPHSKGHWQQT	81.434 fold	0.000 fold	0.000 fold	0.000 fold	1.011 fold	0.000 fold	0.000 fold	81.434 fold	0.000 fold	1.011 fold	0.000 fold	0.000 fold	65.252 fold	65.252 fold	
KTERNSGSPHSKAQNQQT	99.892 fold	0.000 fold	0.000 fold	0.000 fold	0.107 fold	0.000 fold	0.000 fold	99.892 fold	0.000 fold	0.107 fold	0.000 fold	0.000 fold	87.392 fold	87.392 fold	
KAEHGSGSPHSKAQNQQT		0.000 fold						61.830 fold	0.000 fold	0.184 fold	0.772 fold	0.000 fold	116.201 fold		
KTFNASGSPHSKAPNQQT		0.208 fold						65.392 fold	0.000 fold	0.156 fold	0.215 fold	0.000 fold	66.275 fold		
KSLNGSGSPHTKAQNQQT	81.515 fold		0.197 fold	0.333 fold	0.085 fold	0.000 fold	0.000 fold							45.140 fold	
KTTNGSGSPHSKAQYQHT		0.000 fold						67.325 fold	0.000 fold	0.080 fold	1.378 fold	0.000 fold	83.337 fold		
KTINGSGSPHSKASPRQT															Fold Enrichment relative to AAV9, Brain (NHP) [1, 15]: 50.227 fold; Fold Enrichment relative to AAV9, DRG (NHP) ([1]; NHP DRG): 0.088 fold; Fold Enrichment relative to AAV9, Heart (NHP) ([1]; NHP heart): 0.005 fold; Fold Enrichment relative to AAV9, Liver DNA (NHP) ([1]; NHP liver, DNA): 0.530 fold; Fold Enrichment relative to AAV9, Liver RNA (NHP) ([1]; NHP liver, RNA): 1.761 fold; Fold Enrichment relative to AAV9, Muscle (NHP) ([1]; NHP muscle): 0.068 fold; Fold Enrichment relative to AAV9, Brain (Mouse) ([2]; mouse brain): 67.241 fold
KTDKTSGSPHSKAQNQQT	81.430 fold	0.000 fold	0.000 fold	0.000 fold	0.291 fold	1.362 fold	0.000 fold	81.430 fold	0.000 fold	0.291 fold	1.362 fold	0.000 fold	169.515 fold	169.515 fold	
KAINGPDSPHKSGQKQQT	78.213 fold		0.464 fold	0.047 fold	0.162 fold	0.323 fold	0.000 fold							10.395 fold	
KTIIGSGSPHSKAQHQLT		0.000 fold						72.291 fold	0.000 fold	0.000 fold	0.000 fold	0.000 fold	100.144 fold		
KTINGSGSPHSKAHVRQT	119.798 fold	0.000 fold	0.000 fold	0.000 fold	1.039 fold	0.694 fold	0.262 fold	119.798 fold	0.000 fold	1.039 fold	0.694 fold	0.262 fold	165.590 fold	165.590 fold	
KTIEGHDSPHKSGRNQQT	75.838 fold		0.000 fold	0.065 fold	0.079 fold	0.000 fold	0.017 fold							7.818 fold	
KSVNGNGSPHSKAQNQQT	99.385 fold	0.000 fold	0.000 fold	1.329 fold	0.079 fold	0.359 fold	0.000 fold	99.385 fold	1.329 fold	0.079 fold	0.359 fold	0.000 fold	51.016 fold	51.016 fold	
KTVNGSGSPHSKAQLQQT															Fold Enrichment relative to AAV9, Brain (NHP) [1, 15]: 58.681 fold; Fold Enrichment relative to AAV9, DRG (NHP) ([1]; NHP DRG): 0.315 fold; Fold Enrichment relative to AAV9, Heart (NHP) ([1]; NHP heart): 0.465 fold; Fold Enrichment relative to AAV9, Liver DNA (NHP) ([1]; NHP liver, DNA): 0.333 fold; Fold Enrichment relative to AAV9, Liver RNA (NHP) ([1]; NHP liver, RNA): 0.529 fold; Fold Enrichment relative to AAV9, Muscle (NHP) ([1]; NHP muscle): 0.045 fold; Fold Enrichment relative to AAV9, Brain (Mouse) ([2]; mouse brain): 81.201 fold
